We go through two compounds from patent US7018836B1, “P-TEFb compositions, methods and screening assays” (priority 1996, dated 2006).

Each structure is given as a SMILES string.

In one test the target is T1, human P-TEFb (Homo sapiens, UniProt P50750).
T1 construct: endogenous in cells; host or cells: HeLa nuclear extract (HNE), immunoprecipitate on anti-PITALRE-CT beads
The test is described as follows: CTD kinase assay with immunoprecipitated human P-TEFb and Drosophila RNA polymerase II as substrate (FIG. 7B). It counts as biochemical. To be noted: for IC50: immunoprecipitated human P-TEFb, 10 μM ATP, read-out: 50% inhibition point, CTD kinase assay. As for the experimental part: For every 50 μl of HNE, 10 μl of protein A beads containing 1 μg of bound IgG was used. After depletion of HNE, the antibody-containing beads were extensively washed with 100 times the bead volume of 20 mM HEPES (pH 7.6), 0.5% NP-40, 1% Triton X-100, and 5 mM DTT, 600 mM or indicated concentration of NaCl, and then washed with 25 times the bead volume of 20 mM HEPES (pH 7.6) and 1 mM DTT. The amounts of the washed beads used for the kinase assays and silver staining were the equivalent of 1 μl and 10 μl of HNE, respectively.
CTD kinase assays were performed in a […] reaction containing 20 mM HEPES (pH7.6), 10 μM ATP, 5 μCi [γ-^32P]ATP, 10 ng Drosophila RNA polymerase II, 5 mM MgCl2, and purified Drosophila P-TEFb or immunoprecipitated human P-TEFb. In the reactions containing DRB it was added to 50 μM unless other indicated amounts were used. The reactions were incubated at 30° C. for 1 hour.

Another test deals with Drosophila P-TEFb. It counts as biochemical. To be noted: for inhibition of P-TEFb CTD kinase at higher ATP: 100 μM ATP. The protocol: 0.4 μl of purified RNA polymerase II and various protein samples were mixed in 18 μl of 55 mM HMK. The reaction was then initiated by the addition of 2 μl of a solution containing 2 μCi of [γ-^32P]ATP (ICN) and unlabeled ATP at 10 μM, or only unlabeled ATP at concentrations from 1 to 100 μM or other NTPs or dNTPs at concentrations of 1 to 100 μM. Reactions were incubated for the indicated times at 23° C. and then terminated with SDS loading buffer. Samples were analyzed on a 6–15% SDS polyacrylamide gel which was silver stained, dried and subjected to autoradiography if the assay contained label.

Test [1] has as its system runoff transcription from HIV-1 LTR in HNE (human P-TEFb). The test is described as follows: Transcription of HIV LTR template in HeLa nuclear extract (HNE), 633-nt runoff (FIG. 7A). The class given is biochemical. To be noted: for IC50: HNE, HIV LTR template, read-out: 50% inhibition point, transcription assay. As for the experimental part: The transcription template (Nco I-digested pLTR-4/CAT vector containing the HIV-1 LTR from −153 to +80) was used in a pulse-chase transcription experiment. Reactions (12 μl total; 20 mM HEPES, pH 7.6, 7 mM MgCl2, 20 μg/ml DNA template, 3 μl HNE, 64 mM KCl, with 50 μM DRB or 0.3 μl Drosophila P-TEFb (Marshall et al., 1996) as indicated) were pre-incubated for 20 minutes at 30° C., pulsed for 2 minutes by adding ATP, GTP, UTP to 600 μM each and 5 μCi [α-^32P]CTP (˜0.1 mM), and chased for 5 minutes by adding CTP to 1.2 mM. Reactions were stopped, phenol extracted and analyzed on a 6% polyacrylamide gel as described (Marshall and Price, 1995). pLTR-TAR-Luc and pLTR-DTAR-Luc plasmids were digested with Eco RI to generate TAR and DTAR template that were used in the studies. The TAR template contains HIV-1 LTR from −475 to +76, while the DTAR template contains HIV-1 LTR from −475 to +19. Transcription with TAR and DTAR templates generates runoffs of 694 and 646 nucleotides, respectively. The transcription reaction mix contained 20 mM HEPES (pH7.6), 7 mM MgCl2, 60 mM KCl, 0.5 μl HNE (or depHNE as indicated), 20 μg/ml TAR template (or DTAR template as indicated), indicated amount of HIV-1 Tat (86 residue HIV-1 Tat followed by a streptavidin binding tag at its carboxyl terminus) and DRB. The reaction mix was pre-incubated for 15 minutes at 30° C. and the transcription was started by adding nucleotides to final concentrations of 50 μM ATP, 50 μM GTP, 50 μM UTP, 10 μM CTP, and 5 μCi [α-^32P]CTP (˜0.1 mM), and continuously labeled for 20 minutes, or by adding nucleotides to final concentrations of 50 μM ATP, 50 μM GTP, 50 μM UTP, and 5 μCi [α-^32P]CTP (˜0.1 mM), and pulsed for 2 minutes. The reactions were stopped and reaction mix were phenol-extracted. The transcripts were then analyzed on a 6% polyacrylamide gel as described (Marshall and Price, 1995).

The test system of test [2] is productive elongation (runoff transcripts) by RNA polymerase II in KcN. It counts as biochemical, Drosophila. Particulars: for IC50: read-out: 50% inhibition point of runoff transcription.
The next test relates to HeLa cells. To be noted: added to HeLa cells; cited from earlier work.

T1 sequence (P50750 whole entry): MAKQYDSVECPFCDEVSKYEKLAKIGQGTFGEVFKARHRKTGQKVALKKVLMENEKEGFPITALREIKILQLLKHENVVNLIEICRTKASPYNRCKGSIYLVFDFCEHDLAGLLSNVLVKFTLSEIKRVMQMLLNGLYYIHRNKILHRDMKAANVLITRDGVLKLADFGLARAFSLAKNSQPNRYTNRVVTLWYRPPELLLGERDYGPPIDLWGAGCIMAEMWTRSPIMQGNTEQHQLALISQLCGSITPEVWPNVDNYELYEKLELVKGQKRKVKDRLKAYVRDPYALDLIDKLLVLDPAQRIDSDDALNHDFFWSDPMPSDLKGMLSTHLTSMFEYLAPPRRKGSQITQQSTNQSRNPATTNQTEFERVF
T1 sequence (O60563 whole entry partner): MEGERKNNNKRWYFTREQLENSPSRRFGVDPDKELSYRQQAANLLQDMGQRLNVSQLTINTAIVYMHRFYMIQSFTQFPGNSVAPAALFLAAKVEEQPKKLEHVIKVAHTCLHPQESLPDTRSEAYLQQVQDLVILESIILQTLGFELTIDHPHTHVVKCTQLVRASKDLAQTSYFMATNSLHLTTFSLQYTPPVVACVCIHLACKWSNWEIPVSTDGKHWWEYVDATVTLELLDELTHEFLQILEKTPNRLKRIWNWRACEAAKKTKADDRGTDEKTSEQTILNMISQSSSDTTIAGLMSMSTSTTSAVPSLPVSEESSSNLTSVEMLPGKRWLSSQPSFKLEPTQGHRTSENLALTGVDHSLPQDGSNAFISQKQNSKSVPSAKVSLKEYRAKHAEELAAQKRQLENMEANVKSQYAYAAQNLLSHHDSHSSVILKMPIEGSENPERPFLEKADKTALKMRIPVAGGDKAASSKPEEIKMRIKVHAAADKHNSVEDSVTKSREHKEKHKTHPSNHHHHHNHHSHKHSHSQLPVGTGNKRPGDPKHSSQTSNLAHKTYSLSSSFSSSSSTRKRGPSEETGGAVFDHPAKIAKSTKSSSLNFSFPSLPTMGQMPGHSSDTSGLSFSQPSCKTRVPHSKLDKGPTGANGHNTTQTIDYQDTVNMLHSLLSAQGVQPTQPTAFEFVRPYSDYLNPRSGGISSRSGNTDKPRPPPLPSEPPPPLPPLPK

As to `OC[C@H]1O[C@@H](n2cnc3cc(Cl)c(Cl)cc32)[C@H](O)[C@@H]1O` [DRB, 5,6-dichloro-1-β-D-ribofuranosylbenzimidazole], the “sensitivity of phosphorylation by beads containing PITALRE” value at human P-TEFb (50 μM DRB) is “sensitive”. In addition, the results for the IC50 (at human P-TEFb; in test [1]; in test [2]) were 0.65 µM, 1 µM and 0.7 µM, respectively. Also, in the test with Drosophila P-TEFb (10 μM ATP, DRB at 10 μM), the “inhibition of P-TEFb CTD kinase” value is “strongly inhibited”. Besides, in the test with Drosophila P-TEFb (20 μM DRB), the “sensitivity of CTD kinase activity of P-TEFb” value is “sensitive”. In the test with Drosophila P-TEFb, the “inhibition of P-TEFb CTD kinase at higher ATP” value is reported as “less effective”. The “fraction of runoff generated that was DRB-sensitive” value in test [2] was “greater than 95%”. In addition, the “amount of RNA polymerase IIo” value in the test on HeLa cells is given as “rapid decrease”.
For the compound `CNCCNS(=O)(=O)c1cccc2cnccc12` [H-8], on human P-TEFb, the “ratio of 50% inhibition points (H-8/DRB), CTD kinase assay” value was 25 and the IC50 was 16 µM. Further, the “amount of H-8 required relative to DRB to inhibit the kinase to the same level” value in the test on Drosophila P-TEFb (10 μM ATP) is given as “approximately 10 times”. Also, in the test with Drosophila P-TEFb, the “inhibition of P-TEFb CTD kinase at higher ATP” value is recorded as “less effective”. For the same compound, in test [1], the “ratio of 50% inhibition points (H-8/DRB), transcription assay” value turned out to be 23 and the IC50 worked out at 23 µM. For the same compound, the “effect on initiation and abortive transcription” value in test [2] (even at concentrations that severely inhibited runoff) is recorded as “unaffected”. In addition, the IC50 in test [2] is 7 µM. Further, the “amount of RNA polymerase IIo” value in the test with HeLa cells was “rapid decrease”.
